Reference: the NIST ThermoML archive (doi:10.1016/j.tca.2016.02.005)
± gives the expanded uncertainty stated by the source.

Legend:
[1] = refractive index (Na D-line) (dimensionless); xn = mol fraction of the nth substance listed; settings: 101.3 kPa, Liquid, Standard Abbe refractometry
[2] = xn = mol fraction of the nth substance listed; settings: 101.3 kPa, Liquid; for speed of sound: Frequency=3 MHz, Sing-around technique in a fixed-path interferometer; for mass density: Vibrating tube method

COCCO [2-methoxyethan-1-ol] + CCn1cc[n+](C)c1.F[B-](F)(F)F
Settings | mass density, [2] [kg/m3] | refractive index, [1] | speed of sound, [2] [m/s]
298.15 K, x2 = 0 | 960.9 ± 2 | 1.4003 ± 0.0004 | 1345.8 ± 1.5
298.15 K, x2 = 0.0515 | 993.6 ± 2 | 1.4031 ± 0.0004 | 1379.1 ± 1.6
298.15 K, x2 = 0.102 | 1022 ± 2 | 1.4052 ± 0.0004 | 1408.5 ± 1.6
298.15 K, x2 = 0.1502 | 1046.9 ± 2 | 1.4067 ± 0.0004 | 1433.7 ± 1.6
298.15 K, x2 = 0.21 | 1075 ± 2 | 1.408 ± 0.0004 | 1461.4 ± 1.6
298.15 K, x2 = 0.3051 | 1113.8 ± 2 | 1.4094 ± 0.0004 | 1498.3 ± 1.6
298.15 K, x2 = 0.3976 | 1145.5 ± 2 | 1.4101 ± 0.0004 | 1526.8 ± 1.6
298.15 K, x2 = 0.5036 | 1175.9 ± 2 | 1.4107 ± 0.0004 | 1552.1 ± 1.6
298.15 K, x2 = 0.6063 | 1200.7 ± 2 | 1.4111 ± 0.0004 | 1570.9 ± 1.6
298.15 K, x2 = 0.701 | 1220.6 ± 2 | 1.4115 ± 0.0004 | 1584.8 ± 1.6
298.15 K, x2 = 0.8024 | 1240.1 ± 2 | 1.4118 ± 0.0004 | 1597.7 ± 1.6
298.15 K, x2 = 0.8521 | 1249.4 ± 2 | 1.4117 ± 0.0004 | 1603.7 ± 1.6
298.15 K, x2 = 0.9 | 1258.3 ± 2 | 1.4115 ± 0.0004 | 1609.6 ± 1.6
298.15 K, x2 = 0.9502 | 1267.8 ± 2 | 1.4111 ± 0.0004 | 1616 ± 1.6
308.15 K, x2 = 0 | 951.7 ± 2 | 1.3961 ± 0.0004 | 1311.3 ± 1.5
308.15 K, x2 = 0.0515 | 984.6 ± 2 | 1.3991 ± 0.0004 | 1345.9 ± 1.6
308.15 K, x2 = 0.102 | 1013.2 ± 2 | 1.4014 ± 0.0004 | 1376.4 ± 1.6
308.15 K, x2 = 0.1502 | 1038.3 ± 2 | 1.4031 ± 0.0004 | 1402.7 ± 1.6
308.15 K, x2 = 0.21 | 1066.5 ± 2 | 1.4046 ± 0.0004 | 1431.6 ± 1.6
308.15 K, x2 = 0.3051 | 1105.5 ± 2 | 1.4061 ± 0.0004 | 1470 ± 1.6
308.15 K, x2 = 0.3976 | 1137.4 ± 2 | 1.407 ± 0.0004 | 1499.7 ± 1.6
308.15 K, x2 = 0.5036 | 1168 ± 2 | 1.4077 ± 0.0004 | 1526.1 ± 1.6
308.15 K, x2 = 0.6063 | 1192.9 ± 2 | 1.4082 ± 0.0004 | 1545.8 ± 1.6
308.15 K, x2 = 0.701 | 1212.9 ± 2 | 1.4087 ± 0.0004 | 1560.3 ± 1.6
308.15 K, x2 = 0.8024 | 1232.4 ± 2 | 1.4091 ± 0.0004 | 1573.6 ± 1.6
308.15 K, x2 = 0.8521 | 1241.7 ± 2 | 1.4091 ± 0.0004 | 1579.8 ± 1.6
308.15 K, x2 = 0.9 | 1250.6 ± 2 | 1.4089 ± 0.0004 | 1585.9 ± 1.6
308.15 K, x2 = 0.9502 | 1260.2 ± 2 | 1.4085 ± 0.0004 | 1592.5 ± 1.6
318.15 K, x2 = 0 | 942.7 ± 2 | 1.3917 ± 0.0004 | 1276.4 ± 1.5
318.15 K, x2 = 0.0515 | 975.9 ± 2 | 1.3951 ± 0.0004 | 1312.3 ± 1.6
318.15 K, x2 = 0.102 | 1004.7 ± 2 | 1.3977 ± 0.0004 | 1344.1 ± 1.6
318.15 K, x2 = 0.1502 | 1030 ± 2 | 1.3996 ± 0.0004 | 1371.4 ± 1.6
318.15 K, x2 = 0.21 | 1058.5 ± 2 | 1.4013 ± 0.0004 | 1401.5 ± 1.6
318.15 K, x2 = 0.3051 | 1097.9 ± 2 | 1.403 ± 0.0004 | 1441.5 ± 1.6
318.15 K, x2 = 0.3976 | 1130.1 ± 2 | 1.4039 ± 0.0004 | 1472.5 ± 1.6
318.15 K, x2 = 0.5036 | 1160.8 ± 2 | 1.4047 ± 0.0004 | 1500.1 ± 1.6
318.15 K, x2 = 0.6063 | 1185.8 ± 2 | 1.4053 ± 0.0004 | 1520.6 ± 1.6
318.15 K, x2 = 0.701 | 1205.8 ± 2 | 1.406 ± 0.0004 | 1535.7 ± 1.6
318.15 K, x2 = 0.8024 | 1225.2 ± 2 | 1.4064 ± 0.0004 | 1549.6 ± 1.6
318.15 K, x2 = 0.8521 | 1234.4 ± 2 | 1.4065 ± 0.0004 | 1556.1 ± 1.6
318.15 K, x2 = 0.9 | 1243.2 ± 2 | 1.4064 ± 0.0004 | 1562.4 ± 1.6
318.15 K, x2 = 0.9502 | 1252.5 ± 2 | 1.4059 ± 0.0004 | 1569.2 ± 1.6
328.15 K, x2 = 0 | 933.4 ± 2 | 1.3876 ± 0.0004 | 1241.9 ± 1.5
328.15 K, x2 = 0.0515 | 966.8 ± 2 | 1.3914 ± 0.0004 | 1279.2 ± 1.6
328.15 K, x2 = 0.102 | 995.8 ± 2 | 1.3943 ± 0.0004 | 1312.1 ± 1.6
328.15 K, x2 = 0.1502 | 1021.3 ± 2 | 1.3965 ± 0.0004 | 1340.5 ± 1.6
328.15 K, x2 = 0.21 | 1050 ± 2 | 1.3983 ± 0.0004 | 1371.7 ± 1.6
328.15 K, x2 = 0.3051 | 1089.6 ± 2 | 1.4002 ± 0.0004 | 1413.4 ± 1.6
328.15 K, x2 = 0.3976 | 1122 ± 2 | 1.4011 ± 0.0004 | 1445.7 ± 1.6
328.15 K, x2 = 0.5036 | 1152.9 ± 2 | 1.4018 ± 0.0004 | 1474.5 ± 1.6
328.15 K, x2 = 0.6063 | 1178 ± 2 | 1.4024 ± 0.0004 | 1495.9 ± 1.6
328.15 K, x2 = 0.701 | 1198.1 ± 2 | 1.403 ± 0.0004 | 1511.7 ± 1.6
328.15 K, x2 = 0.8024 | 1217.6 ± 2 | 1.4035 ± 0.0004 | 1526.2 ± 1.6
328.15 K, x2 = 0.8521 | 1226.8 ± 2 | 1.4036 ± 0.0004 | 1532.9 ± 1.6
328.15 K, x2 = 0.9 | 1235.6 ± 2 | 1.4035 ± 0.0004 | 1539.4 ± 1.6
328.15 K, x2 = 0.9502 | 1245 ± 2 | 1.4031 ± 0.0004 | 1546.4 ± 1.6
